# Measurements taken from patent US20180344768A1, “NK CELL-BASED THERAPY” (Onkimmune Limited, priority 2016, published 2018).
# Read-outs that look alike come from different tables or passages of the source.
# T1: decoy receptor DcR1 (Homo sapiens, UniProt O14798)
# T1 sequence (O14798 26-236): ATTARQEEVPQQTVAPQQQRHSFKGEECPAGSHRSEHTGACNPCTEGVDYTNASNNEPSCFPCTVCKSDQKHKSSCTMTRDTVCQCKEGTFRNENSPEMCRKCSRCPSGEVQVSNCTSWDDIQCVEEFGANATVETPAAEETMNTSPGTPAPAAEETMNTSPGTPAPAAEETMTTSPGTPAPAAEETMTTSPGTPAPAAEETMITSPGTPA
# T2: DcR1 (Homo sapiens, UniProt O14798)
# T2 sequence (O14798 26-236): T1 sequence (O14798 26-236)
# T3: DcR2 (Homo sapiens, UniProt Q9UBN6)
# T3 sequence (Q9UBN6 56-386): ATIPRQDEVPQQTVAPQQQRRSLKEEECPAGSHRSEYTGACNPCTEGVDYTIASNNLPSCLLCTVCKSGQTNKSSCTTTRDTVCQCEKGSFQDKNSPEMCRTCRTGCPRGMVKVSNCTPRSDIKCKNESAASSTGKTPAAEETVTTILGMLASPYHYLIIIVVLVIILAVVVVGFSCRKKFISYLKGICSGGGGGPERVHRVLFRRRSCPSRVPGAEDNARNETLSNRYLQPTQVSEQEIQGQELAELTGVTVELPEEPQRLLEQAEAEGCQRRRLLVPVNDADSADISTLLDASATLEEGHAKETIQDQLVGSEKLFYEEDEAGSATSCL
# B1: TRAIL variant: described in WO 2009/077857; encoded by the wildtype TRAIL gene containing the D269H/E195R mutation (protein)
# chain: MAMMEVQGGPSLGQTCVLIVIFTVLLQSLCVAVTYVYFTNELKQMQDKYSKSGIACFLKEDDSYWDPNDEESMNSPCWQVKWQLRQLVRKMILRTSEETISTVQEKQQNISPLVRERGPQRVAAHITGTRGRSNTLSSPNSKNEKALGRKINSWESSRSGHSFLSNLHLRNGELVIHEKGFYYIYSQTYFRFQERIKENTKNDKQMVQYIYKYTSYPDPILLMKSARNSCWSKDAEYGLYSIYQGGIFELKENDRIFVSVTNEHLIDMHHEASFFGAFLVG
# Experiments:
# KHYG-1 cells = test: KHYG-1 cell viability after CMA treatment; format: cell-based; details: 100 nM CMA or vehicle
# MM1.S cells [1] = test: Cytotoxicity of KHYG-1 cells with/without TRAIL variant in the presence of CMA; format: cell-based; details: 100 mM CMA for 2 hours, 1:1 ratio, 12 hours
# Experimental: KHYG-1 cells were transfected with the TRAIL variant (TRAIL D269H/E195R), as described above in Example 6. (1) MM1.S cells were used as target cells. (2) 6 hours after electroporation of TRAIL mRNA, KHYG-1 cells were treated with […] CMA or an equal volume of vehicle for 2 hours. […] (5) The KHYG-1 and MM1.S cells were mixed at 1:1 ratio and co-cultured for 12 hours. (6) Flow cytometric analysis of the cytotoxicity of KHYG-1 cells was carried out. The co-cultured cells were washed and stained with CD2-APC antibody (5 uL/test). (7) After washing, further staining was performed with AnnexinV-FITC (5 uL/test) and SYTOX-Green (5 uL/test) using AnnexinV binding buffer. (8) Data were further analyzed using FlowJo 7.6.2 software. CD2-negative population represents MM1.S cells. KHYG-1 cells are strongly positive for CD2. The AnnexinV-FITC and SYTOX-Green positive cells in CD2-negative population were then analyzed.
# perforin = test: CMA-induced reduction of perforin expression in KHYG-1 cells; format: cell-based, human; details: 100 nM for 2 hours
# Experimental: Mouse anti-human perforin-AF647 (catalog number: 563576) was bought from BD Pharmingen. Concanamycin A (catalog number: SC-202111) was bought from Santa Cruz Biotechnology. The stained cell samples were analyzed using a BD FACS Canto II. […] (2) KHYG-1 cells (6 hours after electroporation, cultured in penicillin/streptomycin free RPMI1640 medium) were further treated with 100 nM CMA or equal volume of vehicle (DMSO) for 2 hours. (3) The cells were collected (1×10^6 cells/test) by centrifugation (1500 rpm×5 minutes) and the supernatant was aspirated. (4) The cells were fixed in 4% paraformaldehyde in PBS solution at room temperature for 15 minutes. (5) The cells were washed with 4 mL of FACS Buffer (PBS, 0.5-1% BSA, 0.1% sodium azide) twice. (6) The cells were permeabilized with 1 mL of PBS/0.1% saponin buffer for 30 minutes at room temperature. (7) The cells were washed with 4 mL of PBS/0.1% saponin buffer. (8) The cells were re-suspended in 100 uL of PBS/0.1% saponin buffer, before adding 5 uL of the antibody to each tube and incubating for 30 minutes on ice. (9) The cells were washed with PBS/0.1% saponin buffer 3 times by centrifugation at 1500 rpm for 5 minutes. (10) The cells were re-suspended in 500 uL of ice cold FACS Buffer and kept in the dark on ice or at 4° C. in a fridge briefly until analysis. (11) The cells were analyzed on the flow cytometer (BD FACS Canto II). […]
# DR5 [2] = details: 24 hours
# Experimental: Bortezomib was bought from Millennium Pharmaceuticals. Mouse anti-human DR5-AF647 (catalog number: 565498) was bought from BD Pharmingen. The stained cell samples were analyzed on BD FACS Canto II.
# MM1.S cells [3] = test: Bortezomib-induced sensitization of MM1.S cells to KHYG-1 cells expressing TRAIL variant; format: cell-based; details: MM1.S pretreated with 2.5 nM for 24 hours, 1:1 ratio, 12 hours co-culture
# Experimental: (2) 6 hours after electroporation of TRAIL variant mRNA, KHYG-1 cells were then cultured with MM cells in 12-well plate. After washing, cell concentrations were adjusted to 1×10^6/mL, before mixing KHYG-1 and MM1.S cells at 1:1 ratio to culture for 12 hours. (3) Flow cytometric analysis of the cytotoxicity of KHYG-1 cells was carried out. The co-cultured cells were collected, washed and then stained with CD2-APC antibody (5 uL/test), AnnexinV-FITC (5 uL/test) and SYTOX-Green (5 uL/test) using AnnexinV binding buffer. (4) Data were further analyzed using FlowJo 7.6.2 software. CD2-negative population represents MM.1S cells. KHYG-1 cells are strongly positive for CD2. Finally, the AnnexinV-FITC and SYTOX-Green positive cells in the CD2-negative population were analyzed.
# CTLA4 gene = test: gRNA cleavage activity, T7E1 mismatch detection assay in K562 cells; format: cell-based, human; details: CRISPR/Cas9, agarose gel after T7E1
# Description: (§1) Two gRNA candidates were selected for each target gene and their cleavage efficacies in K562 cells determined. The sequences of the gRNA candidates are shown in Table 1 and the Protospacer Adjacent Motif (PAM) relates to the last 3 bases of the sequence. The flanking regions of the gRNA sequences on the LIR2 gene (SEQ ID NO: 1; amino acid translation SEQ ID NO: 2) and the CTLA4 gene (SEQ ID NO: 7; amino acid translation SEQ ID NO: 8) are shown in FIGS. 1 and 2, respectively.
# (§2) K562 cells were transfected with the prepared gRNA constructs (FIG. 3) and subsequently harvested for PCR amplification. The presence of GFP expression was used to report successful incorporation of the gRNA construct into the K562 cells. This confirmed expression of the Cas9 gene and therefore the ability to knock out expression of the LIR2 and CTLA4 genes.
# (§3) The cleavage activity of the gRNA constructs was determined using an in vitro mismatch detection assay. T7E1 endonuclease I recognizes and cleaves non-perfectly matched DNA, allowing the parental LIR2 and CTLA4 genes to be compared to the mutated genes following CRISPR/Cas9 transfection and non-homologous end joining (NHEJ).
# LIR2 gene = test: as above; format: cell-based, human; details: CRISPR/Cas9, agarose gel after T7E1
# Description: as §1, §2, §3
# The three bands corresponding to each mutation relate to the parental gene and the two resulting strands following detection of a mismatch in the DNA sequence after transfection.
# decoy receptor DcR1 = target: T1, decoy receptor DcR1; details: surface plasmon resonance; cited from earlier work
# DR4 = DR4 (Homo sapiens, UniProt O00220); details: surface plasmon resonance; cited from earlier work
# DcR1 = target: T2, DcR1; details: D269H/E195R mutation vs wildtype TRAIL; cited from earlier work
# DcR2 = target: T3, DcR2; details: D269H/E195R mutation vs wildtype TRAIL; cited from earlier work
# DR5 [4] = target: DR5 (Homo sapiens, UniProt O14763); details: D269H/E195R mutation vs wildtype TRAIL; cited from earlier work
molecule,measurement,setting,value
"C/C=C/[C@H]1O[C@@](O)([C@@H](C)[C@H](O)[C@H](C)[C@H]2OC(=O)/C(OC)=C/C(C)=C/[C@@H](C)[C@@H](O)[C@@H](CC)[C@@H](O)[C@H](C)C/C(C)=C/C=C/[C@@H]2OC)C[C@@H](O[C@H]2C[C@@H](O)[C@H](OC(N)=O)[C@@H](C)O2)[C@@H]1C [CMA, Concanamycin A]",viability of KHYG-1 cells,KHYG-1 cells,no negative effects
same,effect of CMA on cytotoxic activity of NK cells expressing TRAIL variant,MM1.S cells [1],unable to significantly diminish
same,perforin expression level,perforin,significantly decreased
CC(C)C[C@H](NC(=O)[C@H](Cc1ccccc1)NC(=O)c1cnccn1)B(O)O [Bortezomib],DR5 expression,"DR5 [2]; MM1.S cells, low dose",increase
same,DR5 expression,"DR5 [2]; MM cells, high doses",could not be upregulated
same,DR5 expression,"DR5 [2]; RPMI8226 cells, low dose",increase
same,sensitivity of MM cells to KHYG-1 cells expressing the TRAIL variant,MM1.S cells [3],induced sensitivity
"g15 gRNA: gRNA candidate targeting hCTLA4, CCTTGTGCCGCTGAAATCCAAGG (SEQ ID NO: 10) (expressed or natural sequence; listed as Homo sapiens)",gRNA cleavage efficiency at CTLA4 (T7E1),CTLA4 gene,26%
"g18 gRNA: gRNA candidate targeting hLIR2, CGAATCGCAGGTGGTCGCACAGG (SEQ ID NO: 4) (expressed or natural sequence; listed as Homo sapiens)",gRNA cleavage efficiency (LIR2 knockout),LIR2 gene,10%
Wildtype TRAIL: wildtype TRAIL ligand (CD253),Kd,decoy receptor DcR1,> 20 nM
same,Kd,DR4,> 2 nM
"g7 gRNA: gRNA candidate targeting hCTLA4, CACTCACCTTTGCAGAAGACAGG (SEQ ID NO: 9) (expressed or natural sequence; listed as Homo sapiens)",gRNA cleavage efficiency at CTLA4 (T7E1),CTLA4 gene,32%
"g9 gRNA: gRNA candidate targeting hLIR2, GAGTCACAGGTGGCATTTGGCGG (SEQ ID NO: 3) (expressed or natural sequence; listed as Homo sapiens)",gRNA cleavage efficiency (LIR2 knockout),LIR2 gene,11%
B1,affinity for decoy receptor DcR1,DcR1,reducing the affinity
same,affinity for decoy receptor DcR2,DcR2,reducing the affinity
same,affinity for DR5,DR5 [4],significantly increases the affinity
